From patent publication US20100266696A1, “Organic Compounds” (priority 2007, published 2010)

How the values were obtained:
[1] = Scanning electron microscopy of glycopyrrolate materials (Example 1); format: physicochemical
Excerpt: (§1) The crystallites appear to break into fairly regular, rectangularly shaped fragments of smaller size in the early stages of homogenization, which are subsequently comminuted and smoothed further. Particle size decreases further at an increasing number of homogenization cycles, after 24 passes the average particle size is around 1 μm already, and the particle edges are noticeably more rounded than initially or after only 12 passes. No significant changes are observed in particles isolated after 24 and 48 passes through the homogeniser.
(§2) Particles still appear as rectangularly shaped fragments with smoothed edges and an average size around or slightly above 1 μm. The specific surface area of the dried suspension (analysed by adsorption analysis, BET surface measurement) is determined to be 4.0 m^2/g.

[2] = Laser light diffraction particle size analysis of high pressure homogenised glycopyrrolate suspension (Example 1); format: physicochemical; details: suspension in acetone after homogenisation at 950 bar, 48 passes; ultrasonication 60 W 480 s
Method: The suspension is then homogenised at a pressure drop of 950 bar, a reflux temperature of about 9-12.5° C., and a mixing/reflux vessel jacket temperature of 2° C. The piston pump stroke frequency is about 60, and the process is run for a total of 60 minutes, which is equivalent to a total of 48 passes or homogenisation cycles. Samples are also taken as in process control after 15 (12 passes) and 30 (24 passes) minutes, and analyzed along with the final product.
as §1

[3] = BET specific surface area (adsorption analysis); format: physicochemical
Method: as §2
The specific surface area of the final product by BET analysis is determined to be 4.0 m2/g.

[4] = X-ray powder diffraction and DSC crystallinity; format: physicochemical; details: final product after spray drying
[5] = Aggregation/agglomeration tendency: jet-milled vs high pressure homogenised and dried (Example 4); format: physicochemical
Excerpt: The mill is equipped with 3 nozzles of 1.9 mm diameter. […] As a consequence, the material has to be co-milled with a force control agent such as magnesium stearate in order to obtain a freely flowable non-agglomerating micronised drug substance.

[6] = final product after spray drying; ultrasonication 60 W 480 s
Method: The spray dryer is operated at an outlet temperature of around 75-78° C., i.e., above the boiling point of neat acetone, in order to avoid solvent condensation in the spray tower. The inlet temperature is set to 100° C., and the experiment initiated by spraying pure solvent. The spray rate is set to a flow of 5 mL/min using a Büchi lab scale spray dryer, with the aspirator operated at 100%. The nitrogen flow rate is kept constant at 600-700 l/h. At these operating conditions, the homogenised suspension is sprayed, and a dry powder is collected in a cyclone followed by a cloth filter.
Once again ultrasonication at 60 W is applied for 480 seconds to break any loose aggregates in the product prior to starting the particle size distribution measurement.
The final product after spray drying is re-characterized after 25 days of storage at ambient conditions as well as at 4° C.

SMILES: C[N+]1(C)CCC(OC(=O)C(O)(c2ccccc2)C2CCCC2)C1.[Br-] (stereo not shown) [glycopyrrolate, 3-[(cyclopentyl-hydroxyphenylacetyl)oxy]-1,1-dimethyl-pyrrolidinium bromide]
- average particle size ([1]; after 24 passes of homogenisation): around 1 μm
- average size by scanning electron microscopy ([1]; after homogenisation step): below 5 μm
- average size by SEM ([1]; spray dried glycopyrrolate): ~1 μm
- ×10 mean particle size [2]: 0.6 μm
- ×50 mean particle size [2]: 1.3 μm
- ×90 mean particle size [2]: 3.1 μm
- specific surface area (BET) ([3]; dried suspension): 4.0 m^2/g
- specific surface area by BET analysis ([3]; final product): 4.0 m2/g
- crystallinity (XPRD and DSC) compared to coarse drug substance [4]: no change in crystallinity
- tendency to aggregate or agglomerate ([5]; high pressure homogenised and subsequently dried material (Examples 1, 2 and 3)): no tendency to aggregate or agglomerate
- tendency to aggregate and agglomerate ([5]; micronised in fluid bed opposed jet mill): high tendency to aggregate and agglomerate
- mean particle size, ×50 [6]: 1.7 μm
- ×90 value [6]: 3.6 μm
